Experimental data from article PMC7901654, “Bioisosteric Discovery of NPA101.3, a Second-Generation RET/VEGFR2 Inhibitor Optimized for Single-Agent Polypharmacology” (Journal of Medicinal Chemistry, 2020).

Legend:
[1] = system: RET and VEGFR2 in NIH3T3 RET/C634Y tumours; experiment: In vivo target (RET and VEGFR2) inhibition, Western blot of established tumours; design: species or system mouse; conditions: 3 mg/kg/day p.o. for 2 days, harvested 3 h after last dose
Method: In vivo target (RET and VEGFR2) inhibition was studied by treating animals grafted with NIH3T3 RET/C634Y cells at different doses (0.3, 1, or 3 mg/kg/day p.o.) of NPA101.3 for 2 days and then performing Western blot analysis on protein extracts. […] Then, to determine antitumorigenic activity and to better distinguish RET- and VEGFR2-mediated effects, we tested NPA101.3 in nude mice transplanted with NIH3T3 cells transformed by either RET/C634Y or HRAS/G12V. Before tumors appeared, animals were treated daily with NPA101.3 (1.0, 3.0, or 10.0 mg/kg/day) or left untreated. […] Still, VEGFR2 inhibition was detected also in RAS-driven tumors, an effect that might explain the, albeit reduced, effect of the drug on their growth (Figure S13). Importantly, as predicted, no trace of NPA101.3 demethyl metabolites was detected after 1 or 4 h from oral dosing in mice (Figure S14).
Supplementary Figure S11: In vivo target inhibition of NPA101.3 in nude mice implanted with cells transformed by RET/C634Y […] NIH3T3 RET/C634Y cells (2 x 105) were inoculated subcutaneously into the right and left dorsal portions of nude mice. When tumours reached approximately ~200 mm 3, mice (2 mice/dose) were treated by oral gavage with 3 doses (0, 24, 48 h) of the compound (0.3, 1 and 3 mg/Kg) or left untreated (NT); proteins were harvested 3 h after the last dose. […]

[2] = system: RET-driven Ba/F3 cells (RET/C634R, RET/M918T, CCDC6-RET); experiment: Cell growth curves, RET-driven Ba/F3 cells taken together; format: cell-based, murine; conditions: Mus musculus, BaF3; range over RET-transfected Ba/F3 lines; read-out: IC50, RET-driven Ba/F3 cell proliferation
Description: The murine pro-B cell line Ba/F3 requires IL-3 (interleukin 3) for proliferation and survival; this dependency is bypassed by active tyrosine kinases. Therefore, the Ba/F3 cell line is a standard cell culture model for determining the activity and drug-mediated inhibition of tyrosine kinases.[42] Accordingly, stable transfection of RET/C634R, RET/M918T, and CCDC6-RET oncoproteins promotes IL-3-independent growth (Figure 5).
Nthy-ory-3-1 (10000 per well), TPC-1 (10000 per well), MZ-CRC-1 (100000 per well), TT (200000 per well), Lc-2/ad (100000 per well), BCPAP (10000 per well), 8505-C (10000 per well), PC-9 (10000 per well), A549 (10000 per well), CALU-1 (10000 per well), NIH3T3 RET/C634Y (10000 per well), and NIH3T3 HRAS/G12V (10000 per well) were seeded in six-well tissue culture plates. Cells were kept in 2% (TPC-1), 5% (Nthy-ori-3-1), or 10% (BCPAP, 8505-C, CALU-1, A549, PC-9, TT, MZ-CRC-1, and Lc-2/ad) fetal calf serum or in 2% (NIH3T3 RET/C634Y and HRAS/G12V) calf serum. Ba/F3 cells (200000 per well in 2 mL) were seeded in six-well tissue culture plates and kept in 10% fetal calf serum. […] Cells were counted every day (Ba/F3), every 2 days (fibroblasts), or every 2–3 days (human cell lines). […] IC50 doses were calculated through a curve fitting analysis from last day of growth curves using the PRISM software program (Graphpad Software Inc.).

**Q.** Which “RET autophosphorylation and signaling and VEGFR2 phosphorylation in tumours” value [1] does the source give for `CC(C)(C)c1cc(NC(=O)Cc2ccc(-n3cnc4cc(-c5ccc(S(C)(=O)=O)cc5)ccc43)cc2)no1` [NPA101.3] here?
**A.** Its value is “strongly inhibited”.

**Q.** What about the IC50 [2] of the same compound?
**A.** Its IC50 is 1.6 to 3.1 nM.
